Source: patent US12648921B2, “Capric acid and myristic acid compositions for treating conditions” (The Cleveland Clinic Foundation, priority 2016, dated 2026)

Tested on: house dust mite (D. Pteronyssinus) extract (HDME) sensitized and challenged mice
Assay: Airway hyper-reactivity and lung mechanics in house dust mite extract sensitized mice fed purified MCF diets
Type: in vivo
Details: mice fed purified MCF diet, 100 mg/day (4 g/kg body weight); for overall airway constriction (Rrs) induced by increasing dose of methacholine: FIG. 1, from six weeks before HDME sensitization; for ability of the lungs to stretch (Crs, lung compliance) in response to increasing dose of methacholine: FIG. 2; for stiffness of the lungs (Ers) in response to increasing dose of methacholine: FIG. 3; for amount of forcefully exhaled air (FEV) in response to increasing dose of methacholine: FIG. 4
Description: Mice were fed with standard, coconut oil or MCF supplemented diets starting six weeks before allergen sensitization. Isofluorane anesthetized mice received 100 ug house dust mite (D. Pteronyssinus) extract (HDME) (Greer Labs, NC) in […] by nasal aspiration. Five days later mice were challenged daily with 10 ug HDME for 5 days. Three days, after the last HDME exposure, airway hyper-reactivity is measured and lungs collected for analysis. The diets were 15 kcal % fat at a dose of 21 g coconut oil or purified MCF per kg diet. Based on the daily food intake of 4.75 g/day/25 g mouse, each mouse consumes 100 mg of coconut oil or MCF per day. The results of this examples are shown in FIGS. 1-4, which show the results with the mice treated with the various fatty acids, which are present mainly as triglycerides in coconut oil.

SMILES | overall airway constriction (Rrs) induced by increasing dose of methacholine | ability of the lungs to stretch (Crs, lung compliance) in response to increasing dose of methacholine | stiffness of the lungs (Ers) in response to increasing dose of methacholine | amount of forcefully exhaled air (FEV) in response to increasing dose of methacholine
CCCCCCCCCC(=O)O [C10, capric acid] | inhibited | improved | decreased | increased
CCCCCCCCCCCCCC(=O)O [C14, myristic acid] | inhibited | improved | decreased | increased
